{"source": "patent US6355799B1", "about": "“Substituted benzene compounds, process for their preparation, and herbicidal and defoliant compositions containing them” (ISK Americas Incorporated, priority 1997, dated 2002)", "type_in_all_cases": "in vivo", "key": {"[1]": {"test_system": "large crabgrass (Digitaria sanguinalis, DIGSA)", "assay": "Post-emerge test, greenhouse herbicide activity screening", "conditions": "phytotoxicity rating 0-100 (0 no damage, 100 complete death), 14 days after application", "outline": "(§1)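 Compounds in acetone were track-sprayed at 187 l/ha, 15–1000 g ai/ha, onto sandy loam pots. Pre-emerge seeds were sown one day before spraying, with surface watering afterwards. Post-emerge plants were at the 2–3 leaf stage and sprayed with 0.25% v/v non-ionic surfactant. Injury was rated 0–100 at 14 days.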"}, "[2]": {"test_system": "lambsquarters (Chenopodium album, CHEAL)", "assay": "Post-emerge test, greenhouse herbicide activity screening", "conditions": "phytotoxicity rating 0-100 (0 no damage, 100 complete death), 14 days after application", "outline": "as §1"}, "[3]": {"test_system": "sicklepod (Cassia obtusifolia, CASOB)", "assay": "Post-emerge test, greenhouse herbicide activity screening", "conditions": "phytotoxicity rating 0-100 (0 no damage, 100 complete death), 14 days after application", "outline": "as §1"}, "[4]": {"test_system": "barnyardgrass (Echinochloa crus-galli, ECHCG)", "assay": "Post-emerge test, greenhouse herbicide activity screening", "conditions": "phytotoxicity rating 0-100 (0 no damage, 100 complete death), 14 days after application", "outline": "as §1"}, "[5]": {"test_system": "velvetleaf (Abutilon theophrasti, ABUTH)", "assay": "Post-emerge test, greenhouse herbicide activity screening", "conditions": "phytotoxicity rating 0-100 (0 no damage, 100 complete death), 14 days after application", "outline": "as §1"}, "[6]": {"test_system": "green foxtail (Setaria viridis, SETVI)", "assay": "Post-emerge test, greenhouse herbicide activity screening", "conditions": "phytotoxicity rating 0-100 (0 no damage, 100 complete death), 14 days after application", "outline": "as §1"}, "[7]": {"test_system": "johnsongrass (Sorghum halepense, SORHA)", "assay": "Post-emerge test, greenhouse herbicide activity screening", "conditions": "phytotoxicity rating 0-100 (0 no damage, 100 complete death), 14 days after application", "outline": "as §1"}, "[8]": {"test_system": "ivyleaf morningglory (Ipomoea hederacea, IPOHE)", "assay": "Post-emerge test, greenhouse herbicide activity screening", "conditions": "phytotoxicity rating 0-100 (0 no damage, 100 complete death), 14 days after application", "outline": "as §1"}, "[9]": {"test_system": "redroot pigweed (Amaranthus retroflexus, AMARE)", "assay": "Post-emerge test, greenhouse herbicide activity screening", "conditions": "phytotoxicity rating 0-100 (0 no damage, 100 complete death), 14 days after application", "outline": "as §1"}, "[10]": {"test_system": "large crabgrass (Digitaria sanguinalis, DIGSA)", "assay": "Pre-emerge test, greenhouse herbicide activity screening", "conditions": "pre-emerge, rated 14 days after application, 0 = no damage, 100 = complete death", "outline": "(§2)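 Applied at 15–1000 g ai/ha from acetone in 187 l/ha spray volume. Post-emergence applications included 0.25% v/v non-ionic surfactant and reached plants sown 8–21 days before. Pre-emergence applications were incorporated by surface watering. Efficacy or crop damage was rated on a 0–100 scale after 14 days.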"}, "[11]": {"test_system": "lambsquarters (Chenopodium album, CHEAL)", "assay": "Pre-emerge test, greenhouse herbicide activity screening", "conditions": "pre-emerge, rated 14 days after application, 0 = no damage, 100 = complete death", "outline": "as §2"}, "[12]": {"test_system": "sicklepod (Cassia obtusifolia, CASOB)", "assay": "Pre-emerge test, greenhouse herbicide activity screening", "conditions": "pre-emerge, rated 14 days after application, 0 = no damage, 100 = complete death", "outline": "as §2"}, "[13]": {"test_system": "barnyardgrass (Echinochloa crus-galli, ECHCG)", "assay": "Pre-emerge test, greenhouse herbicide activity screening", "conditions": "pre-emerge, rated 14 days after application, 0 = no damage, 100 = complete death", "outline": "as §2"}, "[14]": {"test_system": "velvetleaf (Abutilon theophrasti, ABUTH)", "assay": "Pre-emerge test, greenhouse herbicide activity screening", "conditions": "pre-emerge, rated 14 days after application, 0 = no damage, 100 = complete death", "outline": "as §2"}, "[15]": {"test_system": "green foxtail (Setaria viridis, SETVI)", "assay": "Pre-emerge test, greenhouse herbicide activity screening", "conditions": "pre-emerge, rated 14 days after application, 0 = no damage, 100 = complete death", "outline": "as §2"}, "[16]": {"test_system": "johnsongrass (Sorghum halepense, SORHA)", "assay": "Pre-emerge test, greenhouse herbicide activity screening", "conditions": "pre-emerge, rated 14 days after application, 0 = no damage, 100 = complete death", "outline": "as §2"}, "[17]": {"test_system": "ivyleaf morningglory (Ipomoea hederacea, IPOHE)", "assay": "Pre-emerge test, greenhouse herbicide activity screening", "conditions": "pre-emerge, rated 14 days after application, 0 = no damage, 100 = complete death", "outline": "as §2"}, "[18]": {"test_system": "field corn (Zea mays L., var. Dekalb 535, CORN)", "assay": "Post-emerge test, crop safety", "conditions": "phytotoxicity rating 0-100 (0 no damage, 100 complete death), 14 days after application", "outline": "as §2"}, "[19]": {"test_system": "upland rice (Oryza sp., var. Tebonnet, RICE)", "assay": "Post-emerge test, crop safety", "conditions": "phytotoxicity rating 0-100 (0 no damage, 100 complete death), 14 days after application", "outline": "as §2"}, "[20]": {"test_system": "redroot pigweed (Amaranthus retroflexus, AMARE)", "assay": "Pre-emerge test, greenhouse herbicide activity screening", "conditions": "pre-emerge, rated 14 days after application, 0 = no damage, 100 = complete death", "outline": "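Sandy loam pots; pre-emerge: sown 1 d pre-spray, surface-watered after, then bottom-watered. Post-emerge: sown 8–21 d before, 2–3 leaf stage, + 0.25% v/v NIS, bottom-watered. Acetone, 187 l/ha track spray, 15–1000 g ai/ha. 0–100 injury score, day 14.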"}, "[21]": {"test_system": "field corn (Zea mays L., var. Dekalb 535, CORN)", "assay": "Pre-emerge test, crop safety", "conditions": "pre-emerge, rated 14 days after application, 0 = no damage, 100 = complete death", "outline": "(§3)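 Herbicidal damage is scored 0 (none) to 100 (complete plant death) two weeks after a simulated field spray. Rates span 15–1000 g ai/ha, delivered in acetone at 187 l/ha. For post-emergence treatments, plants have 2–3 leaves and the spray carries 0.25% v/v non-ionic surfactant.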"}, "[22]": {"test_system": "upland rice (Oryza sp., var. Tebonnet, RICE)", "assay": "Pre-emerge test, crop safety", "conditions": "pre-emerge, rated 14 days after application, 0 = no damage, 100 = complete death", "outline": "as §3"}}}
{"smiles": "CCc1ccc(C(=O)Nc2c(OCC#N)c(Cl)cc(F)c2-n2c(=O)cc(C(F)(F)F)n(C)c2=O)cc1", "note": "[2-28]", "values": [{"measurement": "Post-emerge Herbicidal Activity DIGSA", "setting": "[1]; 63 g ai/ha", "value": 0}, {"measurement": "Post-emerge Herbicidal Activity DIGSA", "setting": "[1]; 250 g ai/ha", "value": 0}, {"measurement": "Post-emerge Herbicidal Activity CHEAL", "setting": "[2]; 63 g ai/ha", "value": 60}, {"measurement": "Post-emerge Herbicidal Activity CHEAL", "setting": "[2]; 250 g ai/ha", "value": 60}, {"measurement": "Post-emerge Herbicidal Activity CASOB", "setting": "[3]; 63 g ai/ha", "value": 30}, {"measurement": "Post-emerge Herbicidal Activity CASOB", "setting": "[3]; 250 g ai/ha", "value": 20}, {"measurement": "Post-emerge Herbicidal Activity ECHCG", "setting": "[4]; 63 g ai/ha", "value": 0}, {"measurement": "Post-emerge Herbicidal Activity ECHCG", "setting": "[4]; 250 g ai/ha", "value": 0}, {"measurement": "Post-emerge Herbicidal Activity ABUTH", "setting": "[5]; 63 g ai/ha", "value": 100}, {"measurement": "Post-emerge Herbicidal Activity ABUTH", "setting": "[5]; 250 g ai/ha", "value": 100}, {"measurement": "Post-emerge Herbicidal Activity SETVI", "setting": "[6]; 63 g ai/ha", "value": 30}, {"measurement": "Post-emerge Herbicidal Activity SETVI", "setting": "[6]; 250 g ai/ha", "value": 30}, {"measurement": "Post-emerge Herbicidal Activity SORHA", "setting": "[7]; 63 g ai/ha", "value": 0}, {"measurement": "Post-emerge Herbicidal Activity SORHA", "setting": "[7]; 250 g ai/ha", "value": 0}, {"measurement": "Post-emerge Herbicidal Activity IPOHE", "setting": "[8]; 63 g ai/ha", "value": 60}, {"measurement": "Post-emerge Herbicidal Activity IPOHE", "setting": "[8]; 250 g ai/ha", "value": 50}, {"measurement": "Post-emerge Herbicidal Activity AMARE", "setting": "[9]; 63 g ai/ha", "value": 100}, {"measurement": "Post-emerge Herbicidal Activity AMARE", "setting": "[9]; 250 g ai/ha", "value": 100}, {"measurement": "Pre-emerge Herbicidal Activity DIGSA (phytotoxicity rating, scale 0-100)", "setting": "[10]; 63 g ai/ha", "value": 50}, {"measurement": "Pre-emerge Herbicidal Activity DIGSA (phytotoxicity rating, scale 0-100)", "setting": "[10]; 250 g ai/ha", "value": 90}, {"measurement": "Pre-emerge Herbicidal Activity CHEAL (phytotoxicity rating, scale 0-100)", "setting": "[11]; 63 g ai/ha", "value": 100}, {"measurement": "Pre-emerge Herbicidal Activity CHEAL (phytotoxicity rating, scale 0-100)", "setting": "[11]; 250 g ai/ha", "value": 100}, {"measurement": "Pre-emerge Herbicidal Activity CASOB (phytotoxicity rating, scale 0-100)", "setting": "[12]; 63 g ai/ha", "value": 5}, {"measurement": "Pre-emerge Herbicidal Activity CASOB (phytotoxicity rating, scale 0-100)", "setting": "[12]; 250 g ai/ha", "value": 100}, {"measurement": "Pre-emerge Herbicidal Activity ECHCG (phytotoxicity rating, scale 0-100)", "setting": "[13]; 63 g ai/ha", "value": 0}, {"measurement": "Pre-emerge Herbicidal Activity ECHCG (phytotoxicity rating, scale 0-100)", "setting": "[13]; 250 g ai/ha", "value": 20}, {"measurement": "Pre-emerge Herbicidal Activity ABUTH (phytotoxicity rating, scale 0-100)", "setting": "[14]; 63 g ai/ha", "value": 100}, {"measurement": "Pre-emerge Herbicidal Activity ABUTH (phytotoxicity rating, scale 0-100)", "setting": "[14]; 250 g ai/ha", "value": 100}, {"measurement": "Pre-emerge Herbicidal Activity SETVI (phytotoxicity rating, scale 0-100)", "setting": "[15]; 63 g ai/ha", "value": 50}, {"measurement": "Pre-emerge Herbicidal Activity SETVI (phytotoxicity rating, scale 0-100)", "setting": "[15]; 250 g ai/ha", "value": 100}, {"measurement": "Pre-emerge Herbicidal Activity SORHA (phytotoxicity rating, scale 0-100)", "setting": "[16]; 63 g ai/ha", "value": 10}, {"measurement": "Pre-emerge Herbicidal Activity SORHA (phytotoxicity rating, scale 0-100)", "setting": "[16]; 250 g ai/ha", "value": 50}, {"measurement": "Pre-emerge Herbicidal Activity IPOHE (phytotoxicity rating, scale 0-100)", "setting": "[17]; 63 g ai/ha", "value": 80}, {"measurement": "Pre-emerge Herbicidal Activity IPOHE (phytotoxicity rating, scale 0-100)", "setting": "[17]; 250 g ai/ha", "value": 100}, {"measurement": "Post-emerge Herbicidal Activity CORN (crop damage)", "setting": "[18]; 63 g ai/ha", "value": 15}, {"measurement": "Post-emerge Herbicidal Activity CORN (crop damage)", "setting": "[18]; 250 g ai/ha", "value": 25}, {"measurement": "Post-emerge Herbicidal Activity RICE (crop damage)", "setting": "[19]; 63 g ai/ha", "value": 90}, {"measurement": "Post-emerge Herbicidal Activity RICE (crop damage)", "setting": "[19]; 250 g ai/ha", "value": 90}, {"measurement": "Pre-emerge Herbicidal Activity AMARE (phytotoxicity rating, scale 0-100)", "setting": "[20]; 63 g ai/ha", "value": 100}, {"measurement": "Pre-emerge Herbicidal Activity AMARE (phytotoxicity rating, scale 0-100)", "setting": "[20]; 250 g ai/ha", "value": 100}, {"measurement": "Pre-emerge crop damage CORN (phytotoxicity rating, scale 0-100)", "setting": "[21]; 63 g ai/ha", "value": 0}, {"measurement": "Pre-emerge crop damage CORN (phytotoxicity rating, scale 0-100)", "setting": "[21]; 250 g ai/ha", "value": 10}, {"measurement": "Pre-emerge crop damage RICE (phytotoxicity rating, scale 0-100)", "setting": "[22]; 63 g ai/ha", "value": 60}, {"measurement": "Pre-emerge crop damage RICE (phytotoxicity rating, scale 0-100)", "setting": "[22]; 250 g ai/ha", "value": 70}]}
